In patent US10238713B2, “Cyclic tetrapeptides and therapeutic applications thereof” (LODZ UNIVERSITY OF TECHNOLOGY, priority 2010, dated 2019):
Values belong to the compound of their own block, whether it stands above or below them. Non-standard residues stand in square brackets, D forms with d. Residues, ends and D or L forms follow the SMILES beside them. Oic = O=C(O)[C@@H]1C[C@@H]2CCCC[C@@H]2N1; Phe(4-I) = N[C@@H](Cc1ccc(I)cc1)C(=O)O; Phe(4-Me) = Cc1ccc(C[C@H](N)C(=O)O)cc1; β3hY = N[C@H](CC(=O)O)Cc1ccc(O)cc1; 3Pal = N[C@@H](Cc1cccnc1)C(=O)O; Tic = O=C(O)[C@@H]1Cc2ccccc2CN1; β3hF = N[C@H](CC(=O)O)Cc1ccccc1

Assays:
[1] = system: mice, carrageenan air pouch; assay: Carrageenan air-pouch test (exudate cell number); format: in vivo, mouse; settings: peptides 100 μg i.p. one hour before carrageenan, 24 h; FIGS. 18A-18B
Protocol: (§1) In this and the air-pouch test, 1.5 mg peptide was dissolved in 300 μl of DMSO, then in 0.9% NaCl to achieve the desired dose (250 μg/0.2 ml or 100 μg/0.2 ml). Carrageenan (Sigma) was dissolved in 0.9% aqueous NaCl (overnight). 50 μl of 2% carrageenan solution was injected intradermally into hind foot pads. The peptides were given in a single 250 μg dose (0.2 ml) per mouse intraperitoneally (i.p.), 30 min before carrageenan administration. Dexamethasone (DEX) (Dexaven, Polfa, Poland), a reference drug, was given i.p. in dose 25 μg per mouse. Control mice were administered i.p. appropriately diluted solvent (DMSO in aqueous NaCl) instead of peptides. The foot pads of “background” (BG) mice were injected with 50 μl of 0.9% aqueous NaCl. Foot pad edema was measured with a spring caliper, 2 h, 3 h and 4 h after administration of carrageenan. The results are presented in FIGS. 17A, 17B and 17C as mean values of the antigen-specific increase of the foot pad thickness measured in 5 mice in each experimental group and expressed in mm ±SE (only results from measurements 4 h following administration of carrageenan are presented in figures). Statistics: FIG. 17A: Control vs: DEX P=0.0001; 4B8M P=0.0001; P25 NS (P=1.0000); P28 NS (P=1.0000); P31 NS (P=0.0528); P35 P=0.0008 (ANOVA of Kruskal-Wallis); FIG. 17B: Statistics: Control vs: P22 NS (P=1.0000); P26 NS (P=1.0000); P27 P=0.0050; P30 P=0.0004; P33-b NS (P=1.0000); SP00-b P=0.0001; P00S-b NS (P=1.0000) (ANOVA of Kruskal-Wallis); FIG. 17C: Statistics: Control vs: P21 P=0.0147; P23-2 P=0.0083; P24 P=0.0001; P29 NS (P=0.9999); P32 P=0.0001; P33 NS (P=0.6806); P34 NS (P=0.1920) (ANOVA).
Air pouches were formed by subdermal injection into the dorsal region (in a halothane anesthesia) of 5 cm^3 of air (needle 23G x 11/4, 5 ml syringe). On day 3 the air pouches were given an additional 2 ml of air and an inflammatory process was elicited by an intra-pouch injection of 1% of carrageenan in 0.5 ml of 0.9% aqueous NaCl. The peptides were given i.p. at a dose of 100 μg one hour before carrageenan injection into the air pouch. The mice from the “background” (BG) group were given 0.9% aqueous NaCl i.p. and 0.9% aqueous NaCl into the air pouches. Control mice were given appropriately diluted DMSO i.p. and carrageenan into the air pouches. 24 h after carrageenan injection, the mice were sacrificed by cervical dislocation, the air pouches were supplemented with 1 ml of 0.9% aqueous NaCl and the exudates from the air pouches were aspirated using a syringe. The exudates were diluted with 0.9% aqueous NaCl and the cells were counted in a Bürker hemocytometer. Data are presented in FIGS. 18A and 18B as the mean values from 10 mice/group (cell number×10^6 per mouse) ±SE. Then the cells were centrifuged and 0.1 ml of the supernatant was saved for TNF-α determination (see Determination of TNF-α activity, above). The cell pellets were used to perform smears on microscopic glasses, which were stained with Giemsa and May-Grünwald reagents for evaluation of mast cell degranulation. Cell analysis was performed by a histologist using a light microscope and 1000× magnification. The content of intact and degranulated mast cells is given in percentage (mean values from 10 mice/group) ±SE. Statistics: FIG. 18A: BG vs Control P=0.0000; Control vs: DEX P=0.0034; 4B8M P=0.0005; P22 NS (P=0.7275); P26 P=0.0032; P27 NS (P=0.0659); P35 NS (P=1.0000) (ANOVA of Kruskal-Wallis); FIG. 18B: Control vs: P21 NS (P=0.322); P23-2 P=0.0020; P24 P=0.0001; P25 P=0.0418; P28 NS (P=0.3502); P29 NS (P=0.0582); P30 P=0.0006; P31 P=0.0078; P32 P=0.0340; P33 NS (P=0.9993); P34 NS (p=0.0566) (ANOVA).

human PBMC = assay: Toxicity test: PBMC survival in 24 h culture (MTT); settings: ANOVA, FIGS. 8A-8F (4B8M repeated per figure)
Protocol: PBMC were isolated by centrifugation on Ficoll-uropoline gradient (density 1.077 g/ml) (Lymphoprep; PAA Laboratories), at 800×g for 20 min at 4° C. The interphase cells, consisting of lymphocytes (20%) and monocytes (80%) were then washed three times with Hanks' medium and re-suspended in the culture medium at density of 2×10^6 cells/ml.
Appropriate dilutions of DMSO in RPMI 1640 medium were used as controls. Cell survival was determined by the MTT colorimetric method (Hansen et al., J. Immunol. Methods, 1989, pp. 203-210). The data are presented as a mean OD value from quadriplicate wells ±standard error (SE). The cultures “Control (−)” contained only cells in the culture medium.
The assay was performed per Hansen et al., J. Immunol. […] Briefly, 25 μl of MTT (5 mg/ml) stock solution was added per well at the end of cell incubation and the plates were incubated for 3 h in a cell culture incubator. Then, 100 μl of the extraction buffer (20% SDS with 50% DMF, pH 4.7) was added. After additional overnight incubation, the optical density was measured at 550 nm (Dynatech 5000).

[2] = system: mice, carrageenan-induced foot pad edema; assay: Carrageenan-induced foot-pad edema test; format: in vivo, mouse; settings: 4 h after carrageenan; peptides 250 μg i.p., DEX 25 μg i.p., 30 min before; FIGS. 17A-17C
Protocol: as §1

[3] = system: PHA-induced proliferation of human peripheral blood mononuclear cells (PBMC); assay: Proliferative response of PBMC to PHA (MTT); format: cell-based; settings: four-day incubation, FIGS. 9A-9F
[4] = Solubility in the aqueous culture medium; format: physicochemical
Protocol: RPMI-1640 medium (Cibi/Life Technologies, UK), fetal calf serum (FCS, Gibco), DMSO, phytohemagglutinin A (PHA), lipopolysaccharide (LPS) from E. coli strain O111:B4 (Sigma), […]-2,5-diphenyltetrazolium bromide (MTT), SDS and DMF (Sigma). The culture medium consisted of RPMI-1640, 10% addition of FCS, L-glutamine, sodium pyruvate, 2-mercaptoetanol and antibiotics (streptomycin and penicillin). Cyclic tetrapeptides were initially dissolved in DMSO (5 mg/ml), the dissolved in the culture medium to the desired concentration.
The effects of the peptides on PMBC survival in 24h culture are presented in FIGS. 8A, 8B, 8C, 8D, 8E and 8F. Peptide 4B8M (compound I-A) was included as a reference compound. Appropriate dilutions of DMSO were added to control cultures. […] In the figures, P01=compound I-D, P02=compound I-E, P03=compound I-F, P04=compound I-G, P05=compound I-H, P06=compound I-J, P07=compound I-K, P08=compound I-L, P10a=compound I-M, P10b=compound I-N, P11=compound I-O, P21=compound I-R, P-21b=compound I-Q, P22=compound I-S, P23-2=compound I-U, P24=compound I-V, P25=compound I-X, P25-i=compound I-W, P26=compound I-Y, P27=compound I-Z, P28=compound I-AA, P29=compound I-AB, P30=compound I-AC, P31=compound I-AD, P32=compound I-AE, P33=compound I-AG, P33-b=compound I-AF, P34=compound I-AH, P35=compound I-AI, P00S-b=compound I-AJ, SP00-b=compound I-AL.

Compound: O=C1C[C@H](Cc2ccccc2)NC(=O)[C@@H]2Cc3ccccc3CN2C(=O)[C@@H]2CCCN2C(=O)[C@H](Cc2ccccc2)N1 [I-AB] (cyclo(FP[Tic][β3hF]))
- air pouch exudate cell number, P vs Control [1]: 0.0582
- PBMC survival, P vs DMSO at appropriate dilution (human PBMC; 10 μg/ml): 0.8876
- PBMC survival, P vs DMSO at appropriate dilution (human PBMC; 100 μg/ml): 0.0001
- foot pad edema (increase of foot pad thickness), P vs Control [2]: 0.9999
- PHA-induced PBMC proliferation, P vs DMSO at appropriate dilution ([3]; 10 μg/ml): 1.0000
- PHA-induced PBMC proliferation, P vs DMSO at appropriate dilution ([3]; 100 μg/ml): 0.0001

Compound: O=C1C[C@H](Cc2ccccc2)NC(=O)[C@@H]2C[C@@H]3CCCC[C@@H]3N2C(=O)[C@@H]2CCCN2C(=O)[C@H](Cc2ccccc2)N1 [I-Y] (cyclo(FP[Oic][β3hF]))
- air pouch exudate cell number, P vs Control [1]: 0.0032
- PBMC survival, P vs DMSO at appropriate dilution (human PBMC; 10 μg/ml): 0.9992
- PBMC survival, P vs DMSO at appropriate dilution (human PBMC; 100 μg/ml): 0.0001
- foot pad edema (increase of foot pad thickness), P vs Control [2]: 1.0000
- PHA-induced PBMC proliferation, P vs DMSO at appropriate dilution ([3]; 10 μg/ml): 0.0001
- PHA-induced PBMC proliferation, P vs DMSO at appropriate dilution ([3]; 100 μg/ml): 0.0001

Compound: O=C1C[C@H](Cc2ccccc2)NC(=O)[C@@H]2CCCN2C(=O)[C@@H]2CCCN2C(=O)[C@H](Cc2cccnc2)N1 [I-AC] (cyclo([3Pal]PP[β3hF]))
- air pouch exudate cell number, P vs Control [1]: 0.0006
- PBMC survival, P vs DMSO at appropriate dilution (human PBMC; 10 μg/ml): 0.8178
- PBMC survival, P vs DMSO at appropriate dilution (human PBMC; 100 μg/ml): 0.9882
- foot pad edema (increase of foot pad thickness), P vs Control [2]: 0.0004
- PHA-induced PBMC proliferation, P vs DMSO at appropriate dilution ([3]; 10 μg/ml): 0.9850
- PHA-induced PBMC proliferation, P vs DMSO at appropriate dilution ([3]; 100 μg/ml): 0.9871

- solubility in the aqueous culture medium [4]: incomplete solubility
Compound: O=C1C[C@H](Cc2ccccc2)NC(=O)[C@@H]2CCCN2C(=O)[C@@H]2CCCN2C(=O)[C@H](Cc2ccc(I)cc2)N1 [I-W] (cyclo(PP[β3hF][Phe(4-I)]))
- PBMC survival, P vs DMSO at appropriate dilution (human PBMC; 10 μg/ml): 0.9992
- PBMC survival, P vs DMSO at appropriate dilution (human PBMC; 100 μg/ml): 0.9602
- PHA-induced PBMC proliferation, P vs DMSO at appropriate dilution ([3]; 10 μg/ml): 0.0001
- PHA-induced PBMC proliferation, P vs DMSO at appropriate dilution ([3]; 100 μg/ml): 0.0001

Compound: O=C1C[C@H](Cc2ccc(O)cc2)NC(=O)[C@@H]2CCCN2C(=O)[C@@H]2CCCN2C(=O)[C@H](Cc2ccccc2)N1 [I-AG] (cyclo(FPP[β3hY]))
- air pouch exudate cell number, P vs Control [1]: 0.9993
- PBMC survival, P vs DMSO at appropriate dilution (human PBMC; 10 μg/ml): 0.0001
- PBMC survival, P vs DMSO at appropriate dilution (human PBMC; 100 μg/ml): 0.0001
- foot pad edema (increase of foot pad thickness), P vs Control [2]: 0.6806
- PHA-induced PBMC proliferation, P vs DMSO at appropriate dilution ([3]; 10 μg/ml): 1.0000
- PHA-induced PBMC proliferation, P vs DMSO at appropriate dilution ([3]; 100 μg/ml): 1.0000

Compound: Cc1ccc(C[C@@H]2NC(=O)C[C@H](Cc3ccccc3)NC(=O)[C@@H]3CCCN3C(=O)[C@@H]3CCCN3C2=O)cc1 [I-Z] (cyclo(PP[β3hF][Phe(4-Me)]))
- air pouch exudate cell number, P vs Control [1]: 0.0659
- PBMC survival, P vs DMSO at appropriate dilution (human PBMC; 10 μg/ml): 0.9997
- PBMC survival, P vs DMSO at appropriate dilution (human PBMC; 100 μg/ml): 0.0236
- foot pad edema (increase of foot pad thickness), P vs Control [2]: 0.0050
- PHA-induced PBMC proliferation, P vs DMSO at appropriate dilution ([3]; 10 μg/ml): 0.9121
- PHA-induced PBMC proliferation, P vs DMSO at appropriate dilution ([3]; 100 μg/ml): 0.8195
